In one assay the target is T1, human LFA-1:ICAM-1 (Homo sapiens, UniProt P05107+P20701).
T1 construct: containing the full-length cDNAs for the aL (CD11a) and b2 (CD18) subunits; made in house
The experiment in a line: human LFA-1:ICAM-1 receptor binding assay (format not stated).

Assay [1] has as its system HuT 78 cell adhesion to 5dICAM-Ig. The experiment in a line: Human T-cell adhesion assay (cell attachment assay). The assay is classed as cell-based. The conditions noted are these: HuT78. On the procedure:
The T-cell adhesion assay is performed using a human T-lymphoid cell line HuT 78. Goat anti-HuIgG(Fc) was diluted to 2 μg/ml in PBS and 96-well plates were coated with 50 μl/well @ 37° C. for 1 h. Plates were washed with PBS and blocked for 1 h @ room temperature with 1% BSA in PBS. 5 domain ICAM-Ig was diluted to 100 ng/ml in PBS and 50 μl/well was added to the plates O/N @ 4° C. HuT 78 cells were centrifuged at 100 g and the cell pellet was treated with 5 mM EDTA for 5′ at 37° C. in a 5% CO2 incubator. Cells were washed in 0.14M NaCl, 0.02M Hepes, 0.2% Glucose and 0.1 mM MnCl2 (assay buffer) and centrifuged. The cells were resuspended in assay buffer to 3.0×10^6 c/ml. Inhibitors were diluted in assay buffer to a 2× final concentration and pre-incubated with HuT 78 cells for 30′ at room temperature. 100 μl/well of cells and inhibitors were added to the plates and incubated at room temperature for 1 h. 100 μl/well PBS was added and the plates were sealed and centrifuged inverted at 100 g for 5′. Unattached cells were flicked out of the plate and excess PBS was blotted on a paper towel. […] The enzyme reaction was stopped with 90 μl/well 50 mM Glycine/5 mM EDTA and read on a platereader at […]. HUT 78 cell adhesion to 5dICAM-Ig is measured using the p-nitrophenyl n-acetyl-β-D-glucosaminide method of Landegren, U. (1984) J. Immunol. […]

Among the data in patent US20050203135A1, “Antagonists for treatment of CD/11CD18 adhesion receptor mediated disorders” (Genentech, Inc., priority 1998, published 2005) are IC50 values, retold here.

T1 sequence (P20701 26-1170): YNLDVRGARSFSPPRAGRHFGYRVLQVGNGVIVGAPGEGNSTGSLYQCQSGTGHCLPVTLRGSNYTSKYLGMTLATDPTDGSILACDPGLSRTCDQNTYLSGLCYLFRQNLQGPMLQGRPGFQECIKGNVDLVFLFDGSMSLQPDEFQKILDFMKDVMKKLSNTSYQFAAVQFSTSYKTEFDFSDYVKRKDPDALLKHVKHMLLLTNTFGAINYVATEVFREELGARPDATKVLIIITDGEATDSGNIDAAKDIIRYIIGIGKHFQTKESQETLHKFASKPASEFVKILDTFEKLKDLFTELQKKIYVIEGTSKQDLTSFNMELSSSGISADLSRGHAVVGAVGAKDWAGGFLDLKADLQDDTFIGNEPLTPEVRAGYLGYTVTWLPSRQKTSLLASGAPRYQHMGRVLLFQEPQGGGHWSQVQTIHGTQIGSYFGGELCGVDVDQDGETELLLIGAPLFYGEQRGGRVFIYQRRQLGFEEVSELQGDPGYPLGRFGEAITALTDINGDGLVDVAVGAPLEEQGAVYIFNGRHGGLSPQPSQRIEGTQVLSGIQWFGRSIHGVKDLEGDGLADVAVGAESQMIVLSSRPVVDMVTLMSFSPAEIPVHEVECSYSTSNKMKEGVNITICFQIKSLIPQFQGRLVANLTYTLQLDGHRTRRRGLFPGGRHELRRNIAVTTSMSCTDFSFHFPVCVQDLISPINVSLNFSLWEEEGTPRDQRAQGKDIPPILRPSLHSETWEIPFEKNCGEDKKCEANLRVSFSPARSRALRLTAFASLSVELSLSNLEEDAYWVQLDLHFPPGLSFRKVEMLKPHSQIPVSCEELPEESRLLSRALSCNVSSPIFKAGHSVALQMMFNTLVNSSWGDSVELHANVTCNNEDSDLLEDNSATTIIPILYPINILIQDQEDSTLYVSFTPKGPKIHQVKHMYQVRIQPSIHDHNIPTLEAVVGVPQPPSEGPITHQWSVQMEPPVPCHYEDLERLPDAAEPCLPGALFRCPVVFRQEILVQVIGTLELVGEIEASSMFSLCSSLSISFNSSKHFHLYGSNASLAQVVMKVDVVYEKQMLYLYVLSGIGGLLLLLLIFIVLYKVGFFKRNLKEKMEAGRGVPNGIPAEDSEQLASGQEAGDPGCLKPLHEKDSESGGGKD
T1 sequence (P05107 23-769): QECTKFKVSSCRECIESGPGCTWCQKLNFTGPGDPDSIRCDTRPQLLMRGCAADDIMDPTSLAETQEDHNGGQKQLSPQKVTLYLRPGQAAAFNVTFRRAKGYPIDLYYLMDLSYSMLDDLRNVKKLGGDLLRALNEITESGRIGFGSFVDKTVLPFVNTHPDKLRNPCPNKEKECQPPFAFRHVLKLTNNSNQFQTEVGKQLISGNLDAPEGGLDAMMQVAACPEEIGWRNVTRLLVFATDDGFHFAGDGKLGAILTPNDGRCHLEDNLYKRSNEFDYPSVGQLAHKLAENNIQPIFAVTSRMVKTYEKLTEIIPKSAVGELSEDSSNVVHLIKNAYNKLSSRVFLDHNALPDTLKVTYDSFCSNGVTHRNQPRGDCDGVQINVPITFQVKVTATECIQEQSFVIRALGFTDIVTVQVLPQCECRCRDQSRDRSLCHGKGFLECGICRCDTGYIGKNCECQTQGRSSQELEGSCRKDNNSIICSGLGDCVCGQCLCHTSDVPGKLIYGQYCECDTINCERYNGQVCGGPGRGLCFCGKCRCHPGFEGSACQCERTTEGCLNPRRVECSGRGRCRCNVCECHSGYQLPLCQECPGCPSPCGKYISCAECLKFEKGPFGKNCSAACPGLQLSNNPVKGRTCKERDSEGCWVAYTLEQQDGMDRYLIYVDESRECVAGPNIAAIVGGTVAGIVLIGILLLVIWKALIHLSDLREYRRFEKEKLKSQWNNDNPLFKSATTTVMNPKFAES

For `O=C(N[C@@H](Cc1c[nH]c2ccccc12)C(=O)O)c1ccccc1Br` [2-Bromobenzoyltryptophan], the IC50 at human LFA-1:ICAM-1 is around 2 µM; in assay [1], around 10 µM.
